Data taken from patent publication US11919898B2, “Crystal form of azaindole derivative and use thereof” (Wuxi Life Fountain Biotech Co., Ltd, priority 2020, dated 2024).
Where “and” joins values, the source holds several entries; their conditions need not be identical. Equal entries are not always repeated.

Tests used:
[1] = Hygroscopicity test by dynamic vapor sorption (DVS); assay type: physicochemical; conditions: for ΔW, hygroscopic weight gain: 25° C. and 80% RH, DVS; for Classification of hygroscopicity: 25° C./80% RH
Method: Dynamic Vapor Sorption (DVS) of the Present Invention • Instrument model: SMS DVS Intrinsic Dynamic Vapor Sorption Analyzer • Test method: A sample (10-30 mg) is tested in a DVS sample pan. Detailed DVS Parameters: • Temperature: 25° C. • Equilibration: dm/dt=0.002%/min (Minimum: 10 min, Maximum: 180 min) • RH (%) test interval: 10 (0-90%), 5 (90-95%) • RH (%) test interval range: 0-95-0 Hygroscopicity evaluations are classified as follows: [table] Note: AW % represents the hygroscopic weight gain of the test product at 25° C./80% RH. Experimental Method: • 10-30 mg of the crystal form A of the compound of Formula (II) was placed in the DVS sample pan and tested. Experimental Method: • 10-30 mg of the crystal form G of the compound of Formula (III) was placed in the DVS sample pan and tested. Experimental Method: • 10-30 mg of the crystal form J of the compound of Formula (IV) was placed in the DVS sample pan and tested.

[2] = Stability comparison of crystal form A and crystal form B (slurry in ethanol, XRPD); assay type: physicochemical; conditions: stirred in ethanol for 16 hrs
From the text: 35 g of the crystal form B of the compound of Formula (II) was weighed, added to ethanol, and stirred for 16 hrs.

Row | ΔW, hygroscopic weight gain [1] | Classification of hygroscopicity [1] | SMILES | Crystal form conversion (XRPD) [2]
1 | 3.829% and 3.928% | hygroscopic | COc1cc(OC)c(F)c(Cc2c[nH]c3ncc(-c4cnn(CCO)c4)cc23)c1F | –
2 | 6.077% | hygroscopic | COc1cc(OC)c(F)c(Cc2c[nH]c3ncc(-c4cnn(CCO)c4)cc23)c1F.Cc1ccc(S(=O)(=O)O)cc1 | –
3 | – | – | COc1cc(OC)c(F)c(Cc2c[nH]c3ncc(-c4cnn(CCO)c4)cc23)c1F.Cl | can be converted into the crystal form A of the compound of Formula (II)
